Source: the NIST ThermoML archive (doi:10.1016/j.fluid.2011.04.024)
Numbers after ± are expanded uncertainties.

Conditions: Liquid, Closed cell (Static) method

C=CCCCCCCCCCC [1-dodecene]
vapor or sublimation pressure (430.38 K): 21.7 ± 0.4 kPa | vapor or sublimation pressure (443.18 K): 33.6 ± 0.4 kPa | vapor or sublimation pressure (453.99 K): 44 ± 0.4 kPa | vapor or sublimation pressure (459.86 K): 52.6 ± 0.4 kPa | vapor or sublimation pressure (464.81 K): 61.6 ± 0.4 kPa | vapor or sublimation pressure (470.91 K): 70.7 ± 0.4 kPa | vapor or sublimation pressure (476.45 K): 80.8 ± 0.4 kPa | vapor or sublimation pressure (480.78 K): 90.2 ± 0.5 kPa | vapor or sublimation pressure (484.11 K): 100.7 ± 0.5 kPa

c1ccc2sccc2c1 [benzo[b]thiophene]
vapor or sublimation pressure (434.26 K): 21.3 ± 0.4 kPa | vapor or sublimation pressure (446.75 K): 30.3 ± 0.4 kPa | vapor or sublimation pressure (457.64 K): 41.1 ± 0.4 kPa | vapor or sublimation pressure (465.61 K): 50.8 ± 0.4 kPa | vapor or sublimation pressure (472.44 K): 60.5 ± 0.4 kPa | vapor or sublimation pressure (479.15 K): 71.5 ± 0.4 kPa | vapor or sublimation pressure (484.01 K): 80.5 ± 0.4 kPa | vapor or sublimation pressure (489.09 K): 90.9 ± 0.4 kPa | vapor or sublimation pressure (493.8 K): 101.5 ± 0.4 kPa

CCCCCCCCCCCC [dodecane]
vapor or sublimation pressure (432.23 K): 20.9 ± 0.4 kPa | vapor or sublimation pressure (444.86 K): 31 ± 0.4 kPa | vapor or sublimation pressure (455.87 K): 42.7 ± 0.4 kPa | vapor or sublimation pressure (462.05 K): 50.8 ± 0.4 kPa | vapor or sublimation pressure (469.67 K): 62.3 ± 0.4 kPa | vapor or sublimation pressure (474.19 K): 70.2 ± 0.4 kPa | vapor or sublimation pressure (479.82 K): 81 ± 0.4 kPa | vapor or sublimation pressure (484.34 K): 90.8 ± 0.4 kPa | vapor or sublimation pressure (488.5 K): 100.6 ± 0.4 kPa

CCCCCCCCO [octan-1-ol]
vapor or sublimation pressure (417.83 K): 20.5 ± 0.4 kPa | vapor or sublimation pressure (428.6 K): 30.4 ± 0.4 kPa | vapor or sublimation pressure (437.35 K): 41.5 ± 0.4 kPa | vapor or sublimation pressure (443.9 K): 50.5 ± 0.4 kPa | vapor or sublimation pressure (449.55 K): 60.7 ± 0.4 kPa | vapor or sublimation pressure (454.52 K): 71 ± 0.4 kPa | vapor or sublimation pressure (459.23 K): 81 ± 0.4 kPa | vapor or sublimation pressure (463.21 K): 91.1 ± 0.5 kPa | vapor or sublimation pressure (466.61 K): 100.3 ± 0.5 kPa
